Data on 4 molecules can be found in paper PMC3501507, “A Metal-Based Inhibitor of NEDD8-Activating Enzyme” (PLoS ONE, 2012).

This experiment addresses T1, NEDD8-activating enzyme (NAE) (Homo sapiens, UniProt Q8TBC4).
T1 construct: gene UBA3; recombinant human NAE (APPBP1/UBA3 heterodimer); with APPBP1 (NAE1)
T1 sequence (Q8TBC4 2-463): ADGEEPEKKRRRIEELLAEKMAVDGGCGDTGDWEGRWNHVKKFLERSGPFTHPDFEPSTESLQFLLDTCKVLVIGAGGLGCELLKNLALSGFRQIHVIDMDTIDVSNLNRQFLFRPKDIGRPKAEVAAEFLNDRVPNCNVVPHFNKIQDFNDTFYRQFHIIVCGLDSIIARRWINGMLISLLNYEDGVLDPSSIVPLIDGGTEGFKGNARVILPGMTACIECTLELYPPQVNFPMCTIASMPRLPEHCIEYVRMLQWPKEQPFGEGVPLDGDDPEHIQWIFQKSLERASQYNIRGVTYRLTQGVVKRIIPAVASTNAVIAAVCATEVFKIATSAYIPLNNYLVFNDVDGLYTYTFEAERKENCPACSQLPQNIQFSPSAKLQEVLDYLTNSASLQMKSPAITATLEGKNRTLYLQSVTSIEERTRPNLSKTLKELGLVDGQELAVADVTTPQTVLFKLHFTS
T1 sequence (Q13564 2-534 partner): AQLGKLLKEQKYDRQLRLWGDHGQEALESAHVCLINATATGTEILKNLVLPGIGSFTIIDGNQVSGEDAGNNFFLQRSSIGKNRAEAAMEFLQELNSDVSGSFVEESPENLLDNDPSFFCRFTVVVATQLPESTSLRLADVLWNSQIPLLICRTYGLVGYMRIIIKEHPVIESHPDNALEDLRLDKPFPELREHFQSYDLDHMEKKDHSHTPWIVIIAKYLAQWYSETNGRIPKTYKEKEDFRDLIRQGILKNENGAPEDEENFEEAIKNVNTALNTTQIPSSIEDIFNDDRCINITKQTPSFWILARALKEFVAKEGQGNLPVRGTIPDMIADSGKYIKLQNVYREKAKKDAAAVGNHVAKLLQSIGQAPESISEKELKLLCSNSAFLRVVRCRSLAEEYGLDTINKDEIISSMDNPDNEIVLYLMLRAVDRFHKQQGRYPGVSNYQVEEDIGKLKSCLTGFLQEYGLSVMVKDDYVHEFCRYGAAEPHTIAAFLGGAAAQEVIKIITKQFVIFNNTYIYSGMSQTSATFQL
The experiment can be described thus: cell-free Ubc12-NEDD8 conjugation assay, western blot. The format is biochemical. For orientation: Immunoblotting shows a protein as a band on a membrane.
On to `c1cc[c]2c(c1)-c1cccc[n+]1[Rh-3]213([c]2ccccc2-c2cccc[n+]21)[n+]1cccc2c4nc5ccccc5nc4c4ccc[n+]3c4c21` [compound 1, [Rh(ppy)2(dppz)]^+], for which the half-maximal inhibitory concentration (IC50) (in general, the midpoint of a concentration-inhibition curve) is roughly 1.5 µM.

Molecule `Cc1cc2nc3c4ccc[n+]5c4c4c(ccc[n+]4[Rh-3]546([c]5ccccc5-c5cccc[n+]54)[c]4ccccc4-c4cccc[n+]46)c3nc2cc1C` [compound 2, complex 2] showed an IC50 of roughly 6.25 µM.

Turning to `Cc1cc2nc3c4ccc[n+]5c4c4c(ccc[n+]4[Rh-3]546([c]5cc(C=O)ccc5-c5cccc[n+]54)[c]4cc(C=O)ccc4-c4cccc[n+]46)c3nc2cc1C` [compound 3, complex 3], the IC50 is roughly 6.25 µM.

The molecule `O=Cc1ccc2[c](c1)[Rh-3]13([c]4cc(C=O)ccc4-c4cccc[n+]41)([n+]1ccccc1-2)[n+]1cccc2c4nc5ccc([N+](=O)[O-])cc5nc4c4ccc[n+]3c4c21` [compound 4, complex 4] showed an IC50 of roughly 13 µM.
